Source: patent US10632195B2, “Pharmaceutical device for electric-field assisted administration of Tapentadol and method of administering Tapentadol with same” (Gruenenthal GmbH, priority 2012, dated 2020)
Values joined by “and” are separate entries in the source; they are usually repeats but may differ in a detail not shown here. Equal entries are not always repeated. Structures can show the parent of a compound that is named as a salt.

Legend:
[1] = iontophoretic transdermal delivery of Tapentadol hydrochloride, 8 hours of iontophoresis (example 1a), side-bi-side diffusion cells, constant current 0.25 mA (0.4 mA/cm2), donor 100 mM in water; type: in vitro ADME, pig; conditions: for drug flux across the skin, Mean ± SD / drug flux across the skin, as tapentadol base, Mean ± SD / cumulative, iontophoretic delivery across the skin, Mean ± SD / cumulative, iontophoretic delivery across the skin, as tapentadol base, Mean ± SD: n=6; for drug flux across the skin, Mean ± SD / drug flux across the skin, as tapentadol base, Mean ± SD / cumulative, iontophoretic delivery across the skin, Mean ± SD / cumulative, iontophoretic delivery across the skin, as tapentadol base, Mean ± SD / drug flux across the skin / cumulative, iontophoretic delivery across the skin: patch area 0.64 cm^2; for drug flux across the skin / cumulative, iontophoretic delivery across the skin: single cells 1-6, hydrochloride
Procedure: Determination of the rate of iontophoretic transdermal delivery of Tapentadol hydrochloride for a period of 8 hours of iontophoresis
Tapentadol hydrochloride (batch no. A0012) was employed. The components of the phosphate buffered saline (PBS) and the mobile phase used were from Sigma, UK. The pig skin was obtained from a local farm, washed with water, excess hair was carefully trimmed with scissors, and the skin was dermatomed using a Zimmer dermatome set at a nominal thickness of 750 μm. The skin was then stored at −20° C.
The drug was delivered from the anode, using side-bi-side (horizontal) glass diffusion cells (n=6) supplied by Permegear, USA. The porcine skin membrane was excised from the dorsal surface.
Electrodes were prepared in-house and were made of silver/silver chloride. To pass current for 24 hours in this set-up, it was necessary for the donor compartment to contain 76 mM chloride ions.
(§1) The anode was placed in the donor chamber; the donor solution was 3 ml of Tapentadol hydrochloride (100 mM, i.e. 25.78 mg/ml of Tapentadol hydrochloride, 22.13 mg/ml of base) in water. The cathode was placed in the receptor chamber, which contained 3 ml of phosphate-buffered saline, pH 7.4. Both chambers were stirred by magnets.
Current was applied for a total of 8 or 24 hours, respectively.
The receptor solution was sampled and assayed at 0.5, 1, 2, 3, 4, 5, 6, 7, 8 (example 1a) and optionally 24 hours (example 1b) post-initiation of the current. During the 8 hour experiment (example 1a), at 0.5, 1, 2, and 3 hours, 1 ml of receptor solution was removed and replaced with fresh PBS. As it was clear that the amount of Tapentadol in the receptor solution was sufficient for quantitation by HPLC, at the subsequent sampling times of 4, 5, 6, 7 and 8 hours, the entire receptor solution (3 ml) was removed and replaced with fresh PBS, to ensure sink conditions in the receptor. During the 24 hour experiment (example 1b), the entire receptor solution (3 ml) was removed and replaced with fresh PBS at every sampling point.
The concentrations of Tapentadol hydrochloride in the receptor chamber samples were determined by HPLC. A mobile phase consisting of 300:700:1 methanol:water:phosphoric acid was pumped (1 ml/min) through a Acclaim RP-18 (4×150 mm) reverse-phase column (Dionex, UK) at 35° C. Tapentadol concentrations were quantified via their UV absorbance at 215 nm using a calibration curve diluted in PBS at pH 7.4. Injection volume was 20 μl and the retention time for Tapentadol hydrochloride was 12 minutes and the total run time was 16 minutes.
A Tapentadol-free “blank” diffusion cell (donor was saline only) was also prepared and the receptor solution was analysed after 8 hours to confirm no peaks from any component of the skin co-eluted with the Tapentadol hydrochloride.
(§2) Voltages were as expected for 6 cells in series (range was 6 to 28 volts). The pH of the donor solution was measured after termination of 24 hours of iontophoresis, and ranged from 6.47 to 6.99. The pH of drug in the donor prior to commencing the experiment was 5.07 (5.34 for the 8 hour iontophoresis).

[2] = pH of the donor solution (Tapentadol hydrochloride 100 mM in water) before and after iontophoresis; type: physicochemical
Procedure: as §1, §2

## CC[C@@H](c1cccc(O)c1)[C@@H](C)CN(C)C [Tapentadol hydrochloride]
[1]; 0.5 h, iontophoresis
  drug flux across the skin, Mean ± SD: 8 ± 8 µg/h
  drug flux across the skin, as tapentadol base, Mean ± SD: 7 ± 6 µg/h
[1]; 0.5 h
  cumulative, iontophoretic delivery across the skin, Mean ± SD: 4 ± 4 µg
  cumulative, iontophoretic delivery across the skin, as tapentadol base, Mean ± SD: 3 ± 3 µg
[1]; 1 h, iontophoresis
  drug flux across the skin, Mean ± SD: 56 ± 28 µg/h
  drug flux across the skin, as tapentadol base, Mean ± SD: 48 ± 24 µg/h
[1]; 1 h
  cumulative, iontophoretic delivery across the skin, Mean ± SD: 32 ± 18 µg
  cumulative, iontophoretic delivery across the skin, as tapentadol base, Mean ± SD: 28 ± 15 µg
[1]; 2 h, iontophoresis
  drug flux across the skin, Mean ± SD: 115 ± 25 µg/h
  drug flux across the skin, as tapentadol base, Mean ± SD: 98 ± 21 µg/h
  drug flux across the skin: 104 µg/h and 162 µg/h and 119 µg/h and 112 µg/h and 90 µg/h and 102 µg/h
[1]; 2 h
  cumulative, iontophoretic delivery across the skin, Mean ± SD: 147 ± 40 µg
  cumulative, iontophoretic delivery across the skin, as tapentadol base, Mean ± SD: 126 ± 35 µg
  cumulative, iontophoretic delivery across the skin: 216 µg and 173 µg and 128 µg and 127 µg
[1]; 3 h, iontophoresis
  drug flux across the skin, Mean ± SD: 193 ± 31 µg/h
  drug flux across the skin, as tapentadol base, Mean ± SD: 166 ± 26 µg/h
  drug flux across the skin: 190 µg/h and 201 µg/h and 222 µg/h and 184 µg/h and 139 µg/h and 220 µg/h
[1]; 3 h
  cumulative, iontophoretic delivery across the skin, Mean ± SD: 340 ± 62 µg
  cumulative, iontophoretic delivery across the skin, as tapentadol base, Mean ± SD: 291 ± 54 µg
  cumulative, iontophoretic delivery across the skin: 321 µg and 417 µg and 396 µg and 312 µg and 244 µg and 347 µg
[1]; 4 h, iontophoresis
  drug flux across the skin, Mean ± SD: 228 ± 23 µg/h
  drug flux across the skin, as tapentadol base, Mean ± SD: 196 ± 20 µg/h
  drug flux across the skin: 229 µg/h and 257 µg/h and 209 µg/h and 250 µg/h and 196 µg/h
[1]; 4 h
  cumulative, iontophoretic delivery across the skin, Mean ± SD: 568 ± 68 µg
  cumulative, iontophoretic delivery across the skin, as tapentadol base, Mean ± SD: 487 ± 58 µg
  cumulative, iontophoretic delivery across the skin: 550 µg and 674 µg and 624 µg and 522 µg and 494 µg and 543 µg
[1]; 5 h, iontophoresis
  drug flux across the skin, Mean ± SD: 246 ± 30 µg/h
  drug flux across the skin, as tapentadol base, Mean ± SD: 211 ± 26 µg/h
  drug flux across the skin: 242 µg/h and 305 µg/h and 234 µg/h and 238 µg/h and 240 µg/h and 217 µg/h
[1]; 5 h
  cumulative, iontophoretic delivery across the skin, Mean ± SD: 814 ± 92 µg
  cumulative, iontophoretic delivery across the skin, as tapentadol base, Mean ± SD: 699 ± 79 µg
  cumulative, iontophoretic delivery across the skin: 792 µg and 979 µg and 859 µg and 759 µg and 734 µg and 760 µg
[1]; 6 h, iontophoresis
  drug flux across the skin, Mean ± SD: 244 ± 18 µg/h
  drug flux across the skin, as tapentadol base, Mean ± SD: 209 ± 15 µg/h
  drug flux across the skin: 247 µg/h and 275 µg/h and 245 µg/h and 225 µg/h and 242 µg/h and 228 µg/h
[1]; 6 h
  cumulative, iontophoretic delivery across the skin, Mean ± SD: 1057 ± 107 µg
  cumulative, iontophoretic delivery across the skin, as tapentadol base, Mean ± SD: 908 ± 92 µg
  cumulative, iontophoretic delivery across the skin: 1040 µg and 1253 µg and 1104 µg and 984 µg and 976 µg and 988 µg
[1]; 7 h, iontophoresis
  drug flux across the skin, Mean ± SD: 261 ± 26 µg/h
  drug flux across the skin, as tapentadol base, Mean ± SD: 224 ± 22 µg/h
  drug flux across the skin: 264 µg/h and 295 µg/h and 271 µg/h and 260 µg/h and 261 µg/h and 215 µg/h
[1]; 7 h
  cumulative, iontophoretic delivery across the skin, Mean ± SD: 1319 ± 128 µg
  cumulative, iontophoretic delivery across the skin, as tapentadol base, Mean ± SD: 1132 ± 110 µg
  cumulative, iontophoretic delivery across the skin: 1304 µg and 1548 µg and 1375 µg and 1244 µg and 1237 µg and 1203 µg
[1]; 8 h, iontophoresis
  drug flux across the skin, Mean ± SD: 260 ± 46 µg/h
  drug flux across the skin, as tapentadol base, Mean ± SD: 224 ± 40 µg/h
  drug flux across the skin: 260 µg/h and 353 µg/h and 241 µg/h and 234 µg/h and 242 µg/h and 232 µg/h
[1]; 8 h
  cumulative, iontophoretic delivery across the skin, Mean ± SD: 1579 ± 171 µg
  cumulative, iontophoretic delivery across the skin, as tapentadol base, Mean ± SD: 1356 ± 147 µg
  cumulative, iontophoretic delivery across the skin: 1564 µg and 1901 µg and 1616 µg and 1479 µg and 1435 µg
[1]; example 1a, iontophoresis
  time by which steady-state flux appears to have been reached: 5 to 6 h
[2]; prior to commencing the experiment (8 hour iontophoresis)
  pH of drug in the donor: 5.34
[2]; prior to commencing the experiment (24 hour iontophoresis)
  pH of drug in the donor: 5.07
